For the test, the target named is T1, CheR (Pectobacterium atrosepticum, UniProt Q6D6I8).
T1 sequence (Q6D6I8 1-290): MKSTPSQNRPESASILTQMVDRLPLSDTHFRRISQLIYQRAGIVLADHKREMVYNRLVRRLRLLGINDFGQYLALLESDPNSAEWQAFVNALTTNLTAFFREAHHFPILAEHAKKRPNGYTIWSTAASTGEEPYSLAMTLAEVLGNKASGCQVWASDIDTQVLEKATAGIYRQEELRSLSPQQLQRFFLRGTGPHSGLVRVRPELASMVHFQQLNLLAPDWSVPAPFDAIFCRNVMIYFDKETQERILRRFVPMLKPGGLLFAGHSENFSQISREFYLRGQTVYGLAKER
The test is described as follows: isothermal titration calorimetry. It counts as binding.

Here are results for two molecules from doi:10.1101/2024.03.07.583918v2 (biorxiv, 2024).

As usually defined, the Kd is the free concentration of one partner at which half of the binding sites on the other are occupied at equilibrium, for simple one-to-one binding. Lower therefore signals tighter binding.

Molecules are shown by their SMILES.

`Nc1ncnc2c1ncn2[C@@H]1O[C@H](CSCC[C@H](N)C(=O)O)[C@@H](O)[C@H]1O` [SAH] registered a Kd of 0.48 ± 0.02 µM.

`C[S+](CC[C@H](N)C(=O)O)C[C@H]1O[C@@H](n2cnc3c(N)ncnc32)[C@H](O)[C@@H]1O` (some centres unmarked) [SAM] came in with a Kd of 140 ± 20 µM.
